smiles,measurement,setting,value
NC[C@H]1O[C@H](O[C@H]2[C@H](O)[C@@H](O[C@H]3O[C@H](CO)[C@@H](O)[C@H](N)[C@H]3O)[C@H](N)C[C@@H]2N)[C@H](N)C[C@@H]1O,solubility (mole fraction),"in DMF, 293.15 K",0.000144
same,solubility (mole fraction),"in DMF, 298.15 K",0.000181
same,solubility (mole fraction),"in DMF, 303.15 K",0.000249
same,solubility (mole fraction),"in DMF, 308.15 K",0.000394
same,solubility (mole fraction),"in DMF, 313.15 K",0.000663
same,solubility (mole fraction),"in DMF, 318.15 K",0.000942
same,solubility (mole fraction),"in DMSO, 294.15 K",0.0124
same,solubility (mole fraction),"in DMSO, 298.15 K",0.014
same,solubility (mole fraction),"in DMSO, 303.15 K",0.018
same,solubility (mole fraction),"in DMSO, 308.15 K",0.0236
same,solubility (mole fraction),"in DMSO, 313.15 K",0.0282
same,solubility (mole fraction),"in DMSO, 318.15 K",0.0351
same,solubility (mole fraction),"in ethanol, 283.15 K",0.000436
same,solubility (mole fraction),"in ethanol, 288.15 K",0.000556
same,solubility (mole fraction),"in ethanol, 293.15 K",0.000708
same,solubility (mole fraction),"in ethanol, 298.15 K",0.00114
same,solubility (mole fraction),"in ethanol, 303.15 K",0.00191
same,solubility (mole fraction),"in ethanol, 308.15 K",0.00243
same,solubility (mole fraction),"in methanol, 288.15 K",0.000129
same,solubility (mole fraction),"in methanol, 293.15 K",0.000133
same,solubility (mole fraction),"in methanol, 298.15 K",0.000189
same,solubility (mole fraction),"in methanol, 303.15 K",0.000284
same,solubility (mole fraction),"in methanol, 308.15 K",0.000433
same,solubility (mole fraction),"in methanol, 313.15 K",0.000635
